{"source": "patent US20050033056A1", "about": "“Hydroxylated indole derivatives and uses thereof” (priority 2001, published 2005)", "key": {"CYP3A4/5": {"system": "CYP3A4/5", "assay": "CYP induction in primary human hepatocytes, Western immunoblotting: CYP3A4/5", "type": "cell-based", "conditions": "10 or 50 μM for 72 hours; hepatocytes from three donors", "description": "(§1) Upon receiving a primary culture of human hepatocytes in 6-well plates, the culture medium containing streptomycin/penicillin was refreshed (2 ml/well). […] The culture medium and testing compounds were replenished every 24 hours.\n(§2) At the end of the treatment, the cells were harvested into 1 mL of phosphate-buffered saline (PBS) after washing twice. The cells were precipitated by centrifugation, and were resuspended in PBS (approximately 50 μL).\n(§3) The membrane was blocked by 5% non-fat dried milk (NFDM) blotting buffer (PBS containing 0.05% Tween 20) at 4° C. overnight. […] The membrane was rinsed six times (10 minutes each time) with the blotting buffer, and exposed to 1:10,000 diluted secondary antibodies labeled with horseradish peroxidase for 1 hour at room temperature. After being extensively rinsed with the blotting buffer, the membrane was exposed to the substrate of peroxidase (enhanced chemiluminescence reagent). CYP proteins were detected by […] using an X-ray developer."}, "[1]": {"system": "pooled human liver microsomal preparations (HLM)", "assay": "Compound 1 metabolism / metabolite formation in reconstituted system with pooled HLM", "type": "in vitro ADME", "conditions": "estimated by UV absorbance at 270 nm, metabolite formed or Compound 1 left after 1 hour with NADPH", "description": "The metabolism of Compound 1 was determined by the disappearance of Compound 1 or the appearance of Compound 1 metabolites in reaction mixtures as compared to respective controls. Compound 1 was incubated in the reconstituted in vitro reaction systems containing pooled human liver S9 fractions, microsomal preparations, or recombinant hepatic CYP forms, including CYP1A2, CYP2C9, CYP2C19, CYP2D6, CYP2E1, and CYP3A4. The reaction mixture (total volume of 250 μL) contained 0.5 mg of liver microsomal protein, 50 or 25 pmol of recombinant CYP, and Compound 1 (50-80 μM) in 50 mM Tris buffer containing 15 mM MgCl2 (pH 7.4). After incubating at 37° C. with gentle shaking for 1 minute, the reaction was initiated by adding 25 μL of NADPH solution (20 mg/mL), and was carried out for 1 hour. The reaction was terminated by quickly cooling the test tube on ice, followed by the addition of an equal volume of 100% methanol. The samples were centrifuged in a desktop centrifuge at 14,000 rpm for 5 minutes, and the supernatants were filtered through syringe filters (13 mm, 0.45 μm). The filtrates were subjected to analysis using LC/MS (ion trap) or LC/MS/MS.\n1. […] The detector was monitored at 270 nm, which is the UVmax of Compound 1 predetermined by scanning between 225-400 nm using a photodiode array detector (PDA). […]"}, "CYP2C19/2C8/2C9": {"system": "CYP2C19/2C8/2C9", "assay": "CYP induction in primary human hepatocytes, Western immunoblotting: CYP2C19/2C8/2C9", "type": "cell-based", "conditions": "10 or 50 μM for 72 hours; hepatocytes from three donors", "description": "as §1, §2, §3"}, "[2]": {"system": "primary culture of human hepatocytes", "assay": "Morphology of primary human hepatocytes during treatment", "type": "cell-based", "conditions": "cells exposed to Compound 1 compared with control cells", "description": "Upon receiving a primary culture of human hepatocytes in 6-well plates, the culture medium containing streptomycin/penicillin was refreshed (2 ml/well). […] Compound 1 stock solution was added to the culture medium at a 1:400 ratio (v/v). The culture medium and testing compounds were replenished every 24 hours."}, "5-HT1A receptor": {"target": "T1, 5-HT1A receptor (Homo sapiens, UniProt P08908)", "T1 sequence (P08908 1-422)": "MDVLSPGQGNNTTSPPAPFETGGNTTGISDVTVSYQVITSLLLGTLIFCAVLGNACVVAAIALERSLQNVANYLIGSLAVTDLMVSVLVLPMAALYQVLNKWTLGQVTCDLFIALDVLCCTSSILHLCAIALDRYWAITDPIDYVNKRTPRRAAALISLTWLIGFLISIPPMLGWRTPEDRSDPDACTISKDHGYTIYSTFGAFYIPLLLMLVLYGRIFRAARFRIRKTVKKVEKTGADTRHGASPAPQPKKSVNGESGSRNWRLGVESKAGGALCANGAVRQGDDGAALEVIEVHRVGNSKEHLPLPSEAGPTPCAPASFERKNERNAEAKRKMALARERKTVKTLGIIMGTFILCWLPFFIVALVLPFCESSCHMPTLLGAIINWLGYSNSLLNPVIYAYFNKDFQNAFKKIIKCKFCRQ", "conditions": "background statement, see WO 98/43956 and EP 0 976 732 A1; cited from earlier work"}}, "data": [{"molecule": "CNC(=O)Cc1ccc2ccn(C3CCN(CCc4ccccc4F)CC3)c2c1", "note": "[Compound 1, N-methyl-[1-[1-(2-fluorophenethyl)piperidine-4-yl]-1H-indol-6-yl] acetamide]", "values": [{"measurement": "expression of CYP3A4/5 (Western immunoblotting)", "setting": "CYP3A4/5", "result": "did not increase"}, {"measurement": "Rel. Amount (%)", "setting": "[1]", "result": 36, "unit": "%"}, {"measurement": "expression of CYP2C19/2C8/2C9 (Western immunoblotting)", "setting": "CYP2C19/2C8/2C9", "result": "did not increase"}, {"measurement": "morphologic changes of hepatocytes", "setting": "[2]", "result": "marked morphologic changes were not observed"}, {"measurement": "IC50, binding to 5-HT1A receptor", "setting": "5-HT1A receptor", "result": "low nanomolar"}]}]}
